Experiments:
[1] = target: CYP2C9 (Homo sapiens, UniProt P11712); assay: CYP isoenzyme activity; format: in vitro ADME; conditions: 10 μM
[2] = system: intestinal epithelial barrier integrity; assay: Mucosal healing with FITC-dextran in DSS-induced inflammatory bowel disease model; format: in vivo, C57BL/6 mice; conditions: 10 mg/kg oral daily, 15th day, 4 hours after FITC-dextran, compared to solvent control
Protocol: In order to investigate mucosal healing effects of the compounds according to an embodiment of the present invention, inflammatory bowel disease was induced in C57BL/6 mice, and a degree of recovery of intestinal epithelial harrier integrity was assessed by administering Compound 6 as follows. On day 0 of the experiment, a 2.0% DSS solution prepared by dissolving 2.0% DSS in sterile distilled water was given for drinking to C57BL/6 mice (11 weeks old, female, 20±2 g) for 7 days. The 2.0% DSS solution was changed at an interval of 2 days. Sterile distilled water was provided for drinking from the 8th day of the experiment. Body weight and severity index were measured at an interval of 2 days from the 0th day of the experiment, so as to confirm the onset of inflammatory bowel disease. […] 4 hours after oral administration, fluorescence was measured in the serum extracted from the heart (fluorometer, excitation 485490 nm, emission […]).

[3] = system: DSS-induced inflammatory bowel disease; assay: DSS-induced inflammatory bowel disease model: colon mRNA expression (real-time PCR); format: in vivo, C57BL/6 mice
Description: On the 15th day of the experiment, the colon of the mouse was excised to prepare an mRNA sample. In order to extract mRNA, the colon tissue was ground with a homogenizer to acquire a homogeneous suspension. From the homogeneous suspension, mRNA was extracted by a phenol-chloroform sedimentation method using an easy-spin™ (DNA free) total RNA extraction kit (Intron biotechnology, Cat No. 17221). […] Herein, one (1) fold was set using the normal mouse colon as a control.
The real-time polymerase chain reaction was implemented under the conditions of 45 cycles at an annealing temperature of 58° C. and the following primer sequences were used.
The therapeutic effects of Compound 6 and Comparative Example 1 on inflammatory bowel disease were compared. Inflammatory bowel disease was induced in C57BL/6 mice in the same manner as in Example 4, and after oral administration of 10 mg/kg of Compound 6 and Comparative Example 1 to mice, the expression levels of IL-6 and S100a9 mRNA were confirmed in colon tissues.

[4] = target: CYP2D6 (Homo sapiens, UniProt P10635); conditions: 2 days, 10 μM
[5] = 10 mg/kg oral daily, 15th day, compared to solvent control
[6] = 10 mg/kg oral, compared to Comparative Example 1

CYP2D6, sequence (P10635 whole entry): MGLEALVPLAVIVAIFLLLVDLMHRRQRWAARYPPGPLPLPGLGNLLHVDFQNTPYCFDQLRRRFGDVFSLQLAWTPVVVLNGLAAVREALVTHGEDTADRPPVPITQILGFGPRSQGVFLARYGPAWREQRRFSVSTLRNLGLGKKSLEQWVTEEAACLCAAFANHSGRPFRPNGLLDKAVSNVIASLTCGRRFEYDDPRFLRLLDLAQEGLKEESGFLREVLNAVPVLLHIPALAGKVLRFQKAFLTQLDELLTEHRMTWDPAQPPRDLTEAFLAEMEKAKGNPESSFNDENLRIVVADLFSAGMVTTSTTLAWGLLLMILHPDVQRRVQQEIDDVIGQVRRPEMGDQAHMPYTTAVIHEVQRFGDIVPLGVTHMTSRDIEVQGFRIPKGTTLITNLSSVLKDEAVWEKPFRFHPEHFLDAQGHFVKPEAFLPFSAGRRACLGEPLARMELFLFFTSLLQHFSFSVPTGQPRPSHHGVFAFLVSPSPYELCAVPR
CYP2C9, sequence (P11712 whole entry): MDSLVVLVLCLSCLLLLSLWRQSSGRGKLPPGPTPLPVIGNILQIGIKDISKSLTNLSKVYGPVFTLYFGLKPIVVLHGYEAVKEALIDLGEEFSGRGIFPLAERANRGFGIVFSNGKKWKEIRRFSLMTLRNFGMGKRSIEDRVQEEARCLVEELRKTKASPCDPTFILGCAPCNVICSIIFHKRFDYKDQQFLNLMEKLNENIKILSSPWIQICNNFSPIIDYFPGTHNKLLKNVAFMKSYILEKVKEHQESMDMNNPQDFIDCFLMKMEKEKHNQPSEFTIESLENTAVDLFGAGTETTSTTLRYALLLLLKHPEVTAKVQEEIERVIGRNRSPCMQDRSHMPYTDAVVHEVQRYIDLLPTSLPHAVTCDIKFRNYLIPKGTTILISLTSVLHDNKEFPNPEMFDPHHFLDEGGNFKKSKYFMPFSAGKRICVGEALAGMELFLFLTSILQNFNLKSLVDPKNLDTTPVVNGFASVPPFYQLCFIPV

CYP2C9 activity [1]: 94.5 % of Control Activity
CYP2D6 activity [4]: 101.2 % of Control Activity
SMILES: O=C(Cc1c[nH]c2ccc(Cl)cc12)Nc1nc2ccc(N3CCOCC3)cc2s1 [Compound 6, 2-(5-chloro-1H-indol-3-yl)-N-(6-morpholinobenzo[d]thiazol-2-yl)acetamide]
Serum FITC-dextran [2]: significantly decreased
Foxp3 expression level in colon lesions [3, 5]: significantly increased
IL-1β expression level in colon lesions [3, 5]: significantly reduced
IL-6 expression level in colon lesions [3, 5]: significantly reduced
IL-10 expression level in colon lesions [3, 5]: significantly increased
IL-17A expression level in colon lesions [3, 5]: significantly reduced
Muc2 expression level in colon lesions [3, 5]: significantly increased
Reg3b expression level in colon lesions [3, 5]: significantly increased
S100a8 expression level in colon lesions [3, 5]: significantly reduced
S100a9 expression level in colon lesions [3, 5]: significantly reduced
TNF-α expression level in colon lesions [3, 5]: significantly reduced
IL-6 mRNA expression level in colon tissues [3, 6]: significantly decreased
S100a9 mRNA expression level in colon tissues [3, 6]: significantly decreased

Reference: patent US12187717B2, “Compound and use thereof in treating autoimmune diseases” (PARENCHYMA BIOTECH INC., priority 2022, dated 2025)
